From ChEMBL document CHEMBL3272295, “Drugs derived from cannabinoids. 5. delta6a,10a-Tetrahydrocannabinol and heterocyclic analogs containing aromatic side chains” (J Med Chem, 1976)
Activity calls are given as the source filed them.

Assays:
Rattus norvegicus [1] = species: Rattus norvegicus; assay: animal or person; type: functional; conditions: Charles River, route oral
Description: Antidiarrheal activity in Charles River rat assessed as inhibition of castor oil-induced diarrhea by measuring protected animals at 0.5 mg/kg, po administered 1 hr prior to castor oil challenge measured after 1 hr relative to vehicle-treated control

[2] = Acute toxicity in po dosed mouse; type: organism-based; conditions: in vivo
Mus musculus [3] = assay: Antidepressant activity in po dosed mouse assessed as potentiation of DOPA-induced effect administered 4 hrs prior to DOPA challenge; type: functional; conditions: read-out: MED
Rattus norvegicus [4] = assay: Antihypertensive activity in spontaneously hypertensive rat model assessed as reduction in blood pressure at 3 mg/kg, po after 3 hrs; type: functional; parameters: scale not given: the % may be the effect or the level left
Rattus norvegicus [5] = assay: Antihypertensive activity in spontaneously hypertensive rat model assessed as reduction in blood pressure at 3 mg/kg, po after 24 hrs; type: functional; parameters: scale not given: the % may be the effect or the level left
Rattus norvegicus [6] = assay: Antihypertensive activity in spontaneously hypertensive rat model assessed as reduction in blood pressure at 1 mg/kg, po after 3 hrs; type: functional; parameters: scale not given: the % may be the effect or the level left
Rattus norvegicus [7] = assay: Antihypertensive activity in spontaneously hypertensive rat model assessed as reduction in blood pressure at 1 mg/kg, po after 24 hrs; type: functional; parameters: scale not given: the % may be the effect or the level left
Mus musculus [8] = assay: Analgesic activity in po dosed mouse assessed as inhibition of acetic acid-induced writhing administered 30 mins prior to acetic acid challenge measured after 5 mins for 20 mins; type: functional
Rattus norvegicus [9] = assay: Analgesic activity in Sprague-Dawley rat assessed as increase in pain threshold at 10 mg/kg, po after 15 to 90 mins by tail flick test; type: functional
Mus musculus [10] = assay: Antianxiety activity in albino BALB/cJ mouse assessed as reduction in footshock-induced fighting behavior at 5 mg/kg, po after 30 to 90 mins; type: functional; parameters: scale not given: the % may be the effect or the level left
Rattus norvegicus [11] = assay: Antianxiety activity in Long-Evans rat assessed as reduction in motor activity at 5 mg/kg, po after 2 hrs relative to vehicle-treated control; type: functional; parameters: scale not given: the % may be the effect or the level left
Rattus norvegicus [12] = assay: Antianxiety activity in Long-Evans rat assessed as reduction in motor activity at 2 mg/kg, po after 2 hrs relative to vehicle-treated control; type: functional; parameters: scale not given: the % may be the effect or the level left
Rattus norvegicus [13] = assay: Antipsychotic activity in rat assessed as reduction of methamphetamine-induced hyperactivity at 5 mg/kg, po administered prior to methamphetamine challenge relative to vehicle-treated control; type: functional; parameters: scale not given: the % may be the effect or the level left
Mus musculus [14] = assay: Increase in footshock-induced fighting behavior in albino BALB/cJ mouse at 10 mg/kg, po after 30 to 90 mins; type: functional
Mus musculus [15] = assay: Analgesic activity in mouse assessed as inhibition of acetic acid-induced writhing at 16 mg/kg, po administered 30 mins prior to acetic acid challenge measured after 5 mins for 20 mins; type: functional
Rattus norvegicus [16] = assay: Antipsychotic activity in rat assessed as reduction of methamphetamine-induced hyperactivity at 2.5 mg/kg, po administered prior to methamphetamine challenge relative to vehicle-treated control; type: functional; parameters: scale not given: the % may be the effect or the level left
Mus musculus [17] = assay: Anticonvulsant activity in po dosed mouse assessed as dose required to protect 80% of animal measured after 1 to 4 hrs by audiogenic seizure test; type: functional
Mus musculus [18] = assay: Antianxiety activity in albino BALB/cJ mouse assessed as reduction in footshock-induced fighting behavior at 10 mg/kg, po after 30 to 90 mins; type: functional; parameters: scale not given: the % may be the effect or the level left
Rattus norvegicus [19] = assay: Antianxiety activity in Long-Evans rat assessed as reduction in motor activity at 1.25 mg/kg, po after 2 hrs relative to vehicle-treated control; type: functional; parameters: scale not given: the % may be the effect or the level left
Rhesus monkey = assay: Antianxiety activity in po dosed rhesus monkey assessed as antiagressive behavior measured every hour post dosing; type: functional; conditions: Macaca mulatta, read-out: MED
Rattus norvegicus [20] = assay: Increase in acid output in Sprague-Dawley rat at 50 mg/kg, po administered 30 mins prior to pylorus ligation measured after 4 hrs relative to control; type: functional
Rattus norvegicus [21] = assay: Antisecretory activity in Sprague-Dawley rat assessed as decrease in pepsin concentration at 50 mg/kg, po administered 30 mins prior to pylorus ligation measured after 4 hrs relative to control; type: functional; parameters: scale not given: the % may be the effect or the level left
Rattus norvegicus [22] = assay: Increase in pepsin output in Sprague-Dawley rat at 50 mg/kg, po administered 30 mins prior to pylorus ligation measured after 4 hrs relative to control; type: functional
Rattus norvegicus [23] = assay: Increase in methamphetamine-induced hyperactivity in rat at 5 mg/kg, po administered prior to methamphetamine challenge relative to vehicle-treated control; type: functional
Rattus norvegicus [24] = assay: Antihypertensive activity in spontaneously hypertensive rat model assessed as reduction in blood pressure at 30 mg/kg, po after 3 hrs; type: functional; parameters: scale not given: the % may be the effect or the level left
Rattus norvegicus [25] = assay: Antihypertensive activity in spontaneously hypertensive rat model assessed as reduction in blood pressure at 30 mg/kg, po after 24 hrs; type: functional; parameters: scale not given: the % may be the effect or the level left
Felis catus [26] = assay: Hypnotic activity in cat assessed as increase in total sleep time at 0.5 mg/kg administered orally through diet measured for 12 hrs by EEG analysis; type: functional; conditions: route oral
Felis catus [27] = assay: Hypnotic activity in cat assessed as increase in non-REM sleep time at 0.5 mg/kg administered orally through diet measured for 12 hrs by EEG analysis; type: functional; conditions: route oral
Rattus norvegicus [28] = assay: Increase in volume in Sprague-Dawley rat at 50 mg/kg, po administered 30 mins prior to pylorus ligation measured after 4 hrs relative to control; type: functional
Rattus norvegicus [29] = assay: Antisecretory activity in Sprague-Dawley rat assessed as decrease in acidity at 50 mg/kg, po administered 30 mins prior to pylorus ligation measured after 4 hrs relative to control; type: functional; parameters: scale not given: the % may be the effect or the level left
Mus musculus [30] = assay: Analgesic activity in mouse assessed as inhibition of acetic acid-induced writhing at 100 mg/kg, po administered 30 mins prior to acetic acid challenge measured after 5 mins for 20 mins; type: functional
Rattus norvegicus [31] = assay: Increase in motor activity in Long-Evans rat at 5 mg/kg, po after 2 hrs relative to vehicle-treated control; type: functional

CC1CCC2=C(C1)c1c(O)cc(C(C)C(C)CCc3ccncc3)cc1OC2(C)C (configuration not stated)
inhibition in vivo at 0.5 mg/kg (Rattus norvegicus [1]): 90% | LD50 [2]: ≥ 1000 mg/kg | minimal effective dose (Mus musculus [3]): 20 mg/kg | Activity (Rattus norvegicus [4]): 19% | Activity (Rattus norvegicus [5]): 7% | Activity (Rattus norvegicus [6]): 13% | Activity (Rattus norvegicus [7]): 15% | ED50 (Mus musculus [8]): 4.7 mg/kg | Activity (Rattus norvegicus [9]): 58% | Activity (Mus musculus [10]): 0% | Activity (Rattus norvegicus [11]): 42% | Activity (Rattus norvegicus [12]): 28% | Activity (Rattus norvegicus [13]): 13%

C#CCN1CCC2=C(C1)c1c(O)cc(C(C)CCCc3ccc(C)cc3)cc1OC2(C)C (configuration not stated)
Activity (Mus musculus [14]): 17% | inhibition in vivo at 0.5 mg/kg (Rattus norvegicus [1]): 0% | LD50 [2]: ≥ 1000 mg/kg | inhibition in vivo at 16 mg/kg (Mus musculus [15]): 32% | Activity (Rattus norvegicus [11]): 24% | Activity (Rattus norvegicus [13]): 46%

CCCCCC(C)C(C)c1cc(O)c2c(c1)OC(C)(C)C1CC=C(C)CC21 (configuration not stated)
LD50 [2]: ≥ 1000 mg/kg | Activity (Rattus norvegicus [16]): 52% | minimal effective dose (Mus musculus [3]): 20 mg/kg | Activity (Mus musculus [17]): inactive | ED50 (Mus musculus [8]): 7.9 mg/kg | Activity (Mus musculus [18]): 89% | Activity (Rattus norvegicus [19]): 60% | minimal effective dose (Rhesus monkey): 1 mg/kg | Activity (Rattus norvegicus [13]): 81%

C#CCN1CCC2=C(C1)c1c(O)cc(CCCCC)cc1OC2(C)C
Activity (Rattus norvegicus [20]): 6.1% | Activity (Rattus norvegicus [21]): 8.3% | Activity (Rattus norvegicus [22]): 18.3% | LD50 [2]: ≥ 1000 mg/kg | Activity (Rattus norvegicus [23]): 47% | Activity (Rattus norvegicus [24]): 0% | Activity (Rattus norvegicus [25]): 9% | Time (Felis catus [26]): 28 min | Time (Felis catus [27]): 12 min | Activity (Rattus norvegicus [28]): 24.6% | Activity (Rattus norvegicus [29]): 14.8% | inhibition in vivo at 100 mg/kg (Mus musculus [30]): 19% | Activity (Mus musculus [18]): 6% | Activity (Rattus norvegicus [31]): 6%
